Our source for the EC50 and Emax values is patent US20230000842A1, “METHODS OF TREATING CARTILAGE DISORDERS THROUGH INHIBITION OF CLK AND DYRK” (SAMUMED, LLC, priority 2019, published 2023).

pEC50: −log10 of the molar value.

The target of test [1] is CLK3 kinase (Homo sapiens, UniProt P49761). Briefly: CLK3 kinase activity assay (Z-lyte FRET).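 Also: kinase activity read as coumarin/fluorescein emission ratio by FRET, unphosphorylated peptide as 0% and phosphorylated peptide as 100% control, values from non-linear regression of dose-response curves.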 The class given is biochemical. The settings on record: Z-lyte Ser/Thr 18 peptide, 156 μM ATP, 1 h at room temperature.
Sequence of CLK3 kinase (P49761 whole entry): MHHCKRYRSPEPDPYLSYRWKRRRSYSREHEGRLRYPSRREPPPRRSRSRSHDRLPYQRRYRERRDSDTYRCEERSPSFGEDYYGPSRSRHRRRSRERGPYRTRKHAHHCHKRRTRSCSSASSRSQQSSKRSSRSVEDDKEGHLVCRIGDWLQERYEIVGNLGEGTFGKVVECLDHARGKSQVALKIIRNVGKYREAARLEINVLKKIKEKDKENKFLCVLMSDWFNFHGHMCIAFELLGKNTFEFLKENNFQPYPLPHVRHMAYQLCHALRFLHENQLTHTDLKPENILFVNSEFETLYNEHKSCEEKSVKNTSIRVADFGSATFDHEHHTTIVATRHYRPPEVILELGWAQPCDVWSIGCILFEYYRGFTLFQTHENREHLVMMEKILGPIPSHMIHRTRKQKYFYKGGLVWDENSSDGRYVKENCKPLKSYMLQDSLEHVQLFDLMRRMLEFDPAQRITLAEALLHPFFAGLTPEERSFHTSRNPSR
The subject of test [2] is Wnt pathway activity (SW480 colon carcinoma cells stably expressing the Sp5-Luc reporter). Briefly: Wnt pathway activity screening assay (Sp5-Luc reporter gene assay). The note with it: Homo sapiens, SW480, Table 4; SW480 cells stably expressing Sp5-Luc reporter, 10-point dose-response from 10 μM, 36 to 48 hours.
For test [3], the target named is CLK2 kinase (Homo sapiens, UniProt P49760). Nature of the test: CLK2 kinase activity assay (Z-lyte FRET).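 Also: FRET read-out as coumarin to fluorescein emission ratio, unphosphorylated peptide as 0% and phosphorylated peptide as 100% controls, duplicate reactions, non-linear regression fit of dose-response curves.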 It is filed as biochemical. The settings on record: Z-lyte Ser/Thr 6 peptide, 60 μM ATP, 1 h at room temperature.
Sequence of CLK2 kinase (P49760 whole entry): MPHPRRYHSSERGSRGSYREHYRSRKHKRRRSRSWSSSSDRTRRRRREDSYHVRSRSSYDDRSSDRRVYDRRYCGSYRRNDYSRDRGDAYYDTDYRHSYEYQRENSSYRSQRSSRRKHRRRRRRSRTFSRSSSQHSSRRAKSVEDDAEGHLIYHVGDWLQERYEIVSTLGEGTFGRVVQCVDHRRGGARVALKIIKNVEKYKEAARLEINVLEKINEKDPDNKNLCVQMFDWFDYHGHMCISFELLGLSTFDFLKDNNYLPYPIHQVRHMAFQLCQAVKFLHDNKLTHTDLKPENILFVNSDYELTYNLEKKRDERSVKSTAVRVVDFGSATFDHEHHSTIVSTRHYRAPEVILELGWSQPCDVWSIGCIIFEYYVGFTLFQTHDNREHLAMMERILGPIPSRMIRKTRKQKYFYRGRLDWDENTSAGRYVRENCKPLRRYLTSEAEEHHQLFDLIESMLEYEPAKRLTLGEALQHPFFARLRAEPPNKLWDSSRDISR
The subject of test [4] is primary human mesenchymal stem cells (hMSCs). Briefly: Chondrogenesis screening using primary human mesenchymal stem cells. The settings on record: Homo sapiens, Mesenchymal stem cells, hMSC chondrogenesis; for Emax: maximum activity relative to TGF-β3 (10 ng/mL) positive control, read-out: Max. Activity as % TGF-β3 activity; for EC50: concentration required to induce 50% levels of chondrogenesis with TGF-β3 as positive control, read-out: Conc (nM) of 50% TGF-β3 activity. The class given is cell-based. In outline: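 Derived values are EC50 for 50% chondrogenesis, maximal activity and the dose giving it. These come from nodule area in passage 3–6 primary hMSCs, expressed as fold change over the mean of 3 same-plate DMSO wells, 2–3 replicates per concentration. TGF-β3 served as positive control.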

Take `CCC(=O)Nc1cncc(-c2cnc3[nH]nc(-c4cc5cnccc5[nH]4)c3c2)c1` [compound 418]: the pEC50 in test [1] was 7.39; in test [2], 6.02; in test [3], 8.70. Besides, the Emax in test [4] amounted to 16.9%.
As for `CS(=O)(=O)NCc1cc(F)cc(-c2cncc3[nH]c(-c4n[nH]c5ncc(-c6cncc(CN7CCCCC7)c6)cc45)cc23)c1` [compound 535], the pEC50 in test [1] is 7.28; in test [2], 5.73; in test [3], 8.22. In addition, the Emax in test [4] turned out to be 22.7%.
For the compound `c1cncc(-c2ccc3[nH]nc(-c4cc5c(-c6cccnc6)ccnc5[nH]4)c3n2)c1` [compound 344], the pEC50 in test [1] was 5.01; in test [2], less than 5.00; in test [3] it was 8.52. Also, the EC50 in test [4] is 100 nM. Moreover, the Emax in test [4] stood at 59.2%.
Turning to `COc1ccc(NC(=O)c2n[nH]c3ccc(-c4cncc(CN5CCCCC5)c4)cc23)cn1` [compound 81], the negative-log EC50 (pEC50) in test [1] was 7.49; in test [2], 7.82; in test [3] it was 9.00. In addition, the EC50 in test [4] amounted to 300 nM. For the same compound, in test [4], the Emax stood at 138%.
Regarding `CC(C)(C)CC(=O)Nc1cncc(-c2ccc3[nH]nc(-c4cc5c(-c6ccoc6)ccnc5[nH]4)c3c2)c1` [compound 500], the negative logarithm of the EC50 (pEC50) is 6.93 in test [1], 6.05 in test [2] and 7.92 in test [3]. In addition, the Emax in test [4] was determined as 21.2%.
Turning to `O=C(Nc1cncc(-c2ccc3[nH]nc(-c4nc5c(-c6ccc(Cl)s6)ccnc5[nH]4)c3n2)c1)C1CCC1` [compound 269], the pEC50 is 6.74 in test [1], 6.45 in test [2] and 7.92 in test [3]. Further, the EC50 in test [4] came to 10 nM. In test [4], the Emax was 102%.
Turning to `c1cncc(-c2ccnc3[nH]c(-c4n[nH]c5cnc(-c6cncc(CN7CCCC7)c6)cc45)cc23)c1` [compound 369], the figures for the pEC50 in test [1], in test [2] and in test [3] were 6.99, less than 5.00 and 8.05, respectively. Also, in test [4], the Emax amounted to 16.7%.
Take `CS(=O)(=O)NCc1cc(F)cc(-c2nccc3[nH]c(-c4n[nH]c5ccc(-c6cncc(NC(=O)Cc7ccccc7)c6)nc45)cc23)c1` [compound 530]: the results for the pEC50 in test [1], in test [2] and in test [3] were 6.82, less than 5.00 and 7.77, respectively. In addition, in test [4], the EC50 stood at 10 nM. For the same compound, in test [4], the Emax came to 110%.
On to `c1cncc(-c2ccc3[nH]nc(-c4nc5c(-c6cccnc6)cccc5[nH]4)c3n2)c1` [compound 180], for which the pEC50 in test [1] was 6.53; in test [2], 5.95; in test [3], 8.70. Also, the EC50 in test [4] was 30 nM. In test [4], the Emax is 57.8%.
Taken in the same sequence, the figures for `CN(C)Cc1cncc(-c2ccc3[nH]nc(-c4cc5cnccc5[nH]4)c3n2)c1` [compound 442] were 7.00, 5.94, 8.52, 30 nM and 119%.
As for `CS(=O)(=O)NCc1cc(F)cc(-c2cncc3[nH]c(-c4n[nH]c5ccc(-c6cncnc6)nc45)cc23)c1` [compound 538], the pEC50 in test [1] was 7.24; in test [2], 5.99; in test [3] it was 8.70. Also, the EC50 in test [4] is 10 nM. In addition, in test [4], the Emax was 106%.
As for `CC(C)(C)C(=O)Nc1cncc(-c2ccc3[nH]nc(-c4nc5c(N6CCCCC6)cncc5[nH]4)c3c2)c1` [compound 209], the figures for the negative logarithm of the EC50 (pEC50) in test [1], in test [2] and in test [3] were 7.03, 7.39 and 7.96, respectively. For the same compound, in test [4], the EC50 amounted to 100 nM. For the same compound, the Emax in test [4] worked out at 114%.
Taken in the same sequence, the figures for `C[C@@H]1CN(c2ccc(NC(=O)c3n[nH]c4ccc(-c5cncc(CN6CCCCC6)c5)cc34)cn2)C[C@H](C)O1` [compound 92] were 7.05, 8.55, 9.00, 2700 nM and 129%.
For the compound `Oc1cncc(-c2ccc3[nH]nc(-c4nc5c(-c6cccc(F)c6)cccc5[nH]4)c3c2)c1` [compound 143], the pEC50 was 7.35 in test [1], 7.96 in test [2] and 7.77 in test [3]. Further, in test [4], the Emax stood at 52.2%.
Turning to `Cc1cn(-c2nccc3[nH]c(-c4n[nH]c5ccc(-c6cncc(NC(=O)CC(C)C)c6)cc45)nc23)cn1` [compound 224], the pEC50 is 7.25 in test [1], 7.98 in test [2] and 7.92 in test [3]. In addition, the EC50 in test [4] is 30 nM. Moreover, the Emax in test [4] turned out to be 73.7%.
Taken in the same sequence, the figures for `CC(C)Nc1cncc(-c2ccc3[nH]nc(-c4nc5c(-c6cc(F)cc(NCCN(C)C)c6)nccc5[nH]4)c3c2)c1` [compound 282] were 7.30, 6.69, 8.40, 30 nM and 85.1%.
With `CC(C)C(=O)Nc1cncc(-c2cc3c(-c4cc5c(-c6cc(F)cc(CNS(C)(=O)=O)c6)nccc5[nH]4)n[nH]c3cn2)c1` [compound 520], the pEC50 is 7.12 in test [1], less than 5.00 in test [2] and 8.52 in test [3]. The EC50 in test [4] worked out at 30 nM. Moreover, in test [4], the Emax was 79.5%.
In the case of `CN(C)Cc1cncc(-c2cnc3[nH]nc(-c4cc5c(-c6ccccc6F)cncc5[nH]4)c3c2)c1` [compound 336], the pEC50 in test [1] is 6.97; in test [2], 5.60; in test [3] it was 8.52. Besides, the Emax in test [4] was 60.9%.
Turning to `CN1CCN(c2ccnc3[nH]c(-c4n[nH]c5ccc(-c6cncc(NC(=O)CC(C)(C)C)c6)nc45)cc23)CC1` [compound 480], the pEC50 is 6.73 in test [1], 5.41 in test [2] and 8.15 in test [3]. For the same compound, the Emax in test [4] stood at 30.3%.
Regarding `O=C(Nc1ccnc(C(F)(F)F)c1)c1n[nH]c2ccc(-c3cncc(CN4CCCCC4)c3)cc12` [compound 80], the pEC50 in test [1] is 7.03; in test [2], 7.44; in test [3], 8.52. Besides, the EC50 in test [4] stood at 100 nM. The Emax in test [4] turned out to be 69%.
Consider `O=C(Cc1ccccc1)Nc1cncc(-c2ccc3[nH]nc(-c4cc5cnccc5[nH]4)c3c2)c1` [compound 434], for which the pEC50 is 6.72 in test [1], 5.76 in test [2] and 8.30 in test [3]. For the same compound, the Emax in test [4] was found to be 119%.
In the case of `CC(C)(C)CC(=O)Nc1cncc(-c2cnc3[nH]nc(-c4cc5c(-c6cccnc6)cncc5[nH]4)c3c2)c1` [compound 353], the pEC50 is 7.07 in test [1], less than 5.00 in test [2] and 8.52 in test [3]. The Emax in test [4] was 37.3%.
For the compound `c1ccc2[nH]c(-c3n[nH]c4ncc(-c5cncc(CN6CCCC6)c5)cc34)cc2c1` [compound 444], the pEC50 in test [1] was 6.44; in test [2] it was 5.85; in test [3], 8.05. In addition, the EC50 in test [4] stood at 10 nM. Also, the Emax in test [4] is 97.6%.
As to `FC1(F)CCN(Cc2cncc(-c3ccc4[nH]nc(-c5cc6c(N7CCCCC7)ccnc6[nH]5)c4n3)c2)C1` [compound 468], the pEC50 is 6.78 in test [1], 5.28 in test [2] and 8.30 in test [3]. Moreover, the Emax in test [4] is 37.6%.
On to `CC(=O)Nc1cncc(-c2ccc3[nH]nc(-c4cc5c(N6CCCCC6)nccc5[nH]4)c3c2)c1` [compound 457], for which the pEC50 is 7.28 in test [1], 6.35 in test [2] and 9.00 in test [3]. Besides, in test [4], the EC50 was 10 nM. Besides, in test [4], the Emax was 244%.
For the compound `CCCC(=O)Nc1cncc(-c2cnc3[nH]nc(-c4nc5c(-c6ccccc6F)cncc5[nH]4)c3c2)c1` [compound 172], the pEC50 in test [1] was 6.93; in test [2], 8.10; in test [3] it was 8.15. Moreover, the Emax in test [4] was 82.8%.
`Cc1cn(-c2ccnc3[nH]c(-c4n[nH]c5ccc(-c6cncc(NC(=O)C7CCC7)c6)nc45)nc23)cn1` [compound 228]: the results for the pEC50 in test [1], in test [2] and in test [3] were 6.97, less than 5.00 and 8.40, respectively. Moreover, the EC50 in test [4] was 300 nM. Further, in test [4], the Emax came out at 69.1%.
Take `Nc1cncc(-c2cnc3[nH]nc(-c4cc5c(-c6ccncc6)cncc5[nH]4)c3c2)c1` [compound 379]: the negative logarithm of the EC50 (pEC50) in test [1] is 7.16; in test [2], less than 5.00; in test [3], 8.40. Further, the Emax in test [4] came to 31.5%.
Turning to `O=C(Cc1ccccc1)Nc1cncc(-c2ccc3[nH]nc(-c4nc5c(-c6ccoc6)cncc5[nH]4)c3c2)c1` [compound 234], the negative-log EC50 (pEC50) was 6.92 in test [1], 7.48 in test [2] and 8.22 in test [3]. Moreover, the EC50 in test [4] was 30 nM. The Emax in test [4] is 102%.
In the case of `CN(C)Cc1cncc(-c2cnc3[nH]nc(-c4nc5c(-c6cc(F)cc(N7CCOCC7)c6)cncc5[nH]4)c3c2)c1` [compound 294], the values for the pEC50 in test [1], in test [2] and in test [3] were 7.60, 7.68 and 9.00, respectively. Also, the EC50 in test [4] is 30 nM. For the same compound, the Emax in test [4] was 114%.
With `CN1CCN(c2cncc3[nH]c(-c4n[nH]c5ccc(-c6cncc(N)c6)cc45)cc23)CC1` [compound 470], the figures for the pEC50 in test [1], in test [2] and in test [3] were 7.40, 5.08 and 8.70, respectively. In test [4], the Emax stood at 50.9%.

Usually pEC50 stands for −log10 of the EC50, conventionally taken in molar units. Low readings indicate a large EC50, high ones a small EC50.
